Experimental data published in US11787785B2 (NOVARTIS AG, priority 2021, dated 2023).

Target: T1, WIZ protein (HiBit-WIZ fusion protein) (Homo sapiens, UniProt O95785+Q96SW2)
T1 construct: expressed in transfected cells
Assay: Quantification of WIZ protein levels in HiBit tag fusion protein assay (WIZ HiBit assay in 293T cells)
Format: cell-based
Set-up: remaining activity / Dmax: dose or concentration left out as unconfirmed
Details: for Dmax at 25 µM: 100 − Amax; for Dmax at 25 µM / remaining activity at 25 µM: 293T cells; for remaining activity at 25 µM: DMSO-normalized, curve-fitted percentage of WIZ-HiBit remaining at 25 uM; for DC50: WIZ HiBit assay in 293T cells, 10-point, 5-fold dose response, highest concentration 25 μM, about 18 hours, read-out: WIZ AC50
Summary of the method: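 Luminescence after LgBit complementation quantified remaining HiBit-WIZ in lysates of single-copy stable 293T lines. Cells dosed ~18 h at 37 °C with 10-point, 5-fold dilutions (highest 25 μM); DMSO set to 100%, fitted curve gave % remaining at 25 μM (Amax).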

[1] = HEK-293T, read-out: % degradation of WIZ (100 − Amax)

T1 sequence (O95785 whole entry, the tested form may be a part): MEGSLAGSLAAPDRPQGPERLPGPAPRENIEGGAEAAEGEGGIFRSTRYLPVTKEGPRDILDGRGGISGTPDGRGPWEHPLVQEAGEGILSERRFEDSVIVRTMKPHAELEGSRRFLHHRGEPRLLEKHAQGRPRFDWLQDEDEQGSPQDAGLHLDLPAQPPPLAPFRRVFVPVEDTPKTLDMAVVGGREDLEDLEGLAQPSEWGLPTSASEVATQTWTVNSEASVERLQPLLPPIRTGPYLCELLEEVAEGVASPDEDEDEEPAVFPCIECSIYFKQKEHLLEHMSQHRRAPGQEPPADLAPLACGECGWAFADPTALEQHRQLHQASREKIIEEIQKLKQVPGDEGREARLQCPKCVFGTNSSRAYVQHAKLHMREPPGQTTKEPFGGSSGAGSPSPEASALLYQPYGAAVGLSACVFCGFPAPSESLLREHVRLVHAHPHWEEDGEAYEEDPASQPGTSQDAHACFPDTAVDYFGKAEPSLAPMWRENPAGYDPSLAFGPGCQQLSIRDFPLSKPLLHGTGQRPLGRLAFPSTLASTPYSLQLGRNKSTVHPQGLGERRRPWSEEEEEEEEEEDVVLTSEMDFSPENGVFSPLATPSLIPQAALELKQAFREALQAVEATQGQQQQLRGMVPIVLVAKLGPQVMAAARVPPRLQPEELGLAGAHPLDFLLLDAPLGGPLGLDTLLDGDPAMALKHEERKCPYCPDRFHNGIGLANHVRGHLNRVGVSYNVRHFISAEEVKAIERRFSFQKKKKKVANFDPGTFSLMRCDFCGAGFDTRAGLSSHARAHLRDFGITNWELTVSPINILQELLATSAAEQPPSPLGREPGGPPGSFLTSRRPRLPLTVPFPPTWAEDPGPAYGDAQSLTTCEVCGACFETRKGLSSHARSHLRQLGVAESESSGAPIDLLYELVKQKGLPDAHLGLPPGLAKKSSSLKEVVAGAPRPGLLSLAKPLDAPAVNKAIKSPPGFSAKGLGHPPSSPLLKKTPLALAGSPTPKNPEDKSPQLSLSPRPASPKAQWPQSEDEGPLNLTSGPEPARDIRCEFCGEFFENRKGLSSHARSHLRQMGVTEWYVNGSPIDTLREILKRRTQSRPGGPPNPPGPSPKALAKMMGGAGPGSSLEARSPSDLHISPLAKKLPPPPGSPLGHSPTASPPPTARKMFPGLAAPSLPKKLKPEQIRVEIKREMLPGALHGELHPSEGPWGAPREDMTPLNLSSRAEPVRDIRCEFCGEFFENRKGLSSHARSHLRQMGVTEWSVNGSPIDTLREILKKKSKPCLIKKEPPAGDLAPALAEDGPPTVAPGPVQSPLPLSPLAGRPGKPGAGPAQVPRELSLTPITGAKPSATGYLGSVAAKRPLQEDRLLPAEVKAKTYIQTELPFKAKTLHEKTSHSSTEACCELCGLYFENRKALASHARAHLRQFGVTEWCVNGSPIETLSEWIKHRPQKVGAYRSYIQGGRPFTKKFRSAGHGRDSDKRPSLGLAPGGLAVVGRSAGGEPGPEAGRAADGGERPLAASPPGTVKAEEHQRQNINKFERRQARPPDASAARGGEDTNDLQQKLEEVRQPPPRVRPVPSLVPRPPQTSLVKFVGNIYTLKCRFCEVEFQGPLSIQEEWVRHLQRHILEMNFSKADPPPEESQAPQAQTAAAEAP
T1 sequence (Q96SW2 whole entry, the tested form may be a part): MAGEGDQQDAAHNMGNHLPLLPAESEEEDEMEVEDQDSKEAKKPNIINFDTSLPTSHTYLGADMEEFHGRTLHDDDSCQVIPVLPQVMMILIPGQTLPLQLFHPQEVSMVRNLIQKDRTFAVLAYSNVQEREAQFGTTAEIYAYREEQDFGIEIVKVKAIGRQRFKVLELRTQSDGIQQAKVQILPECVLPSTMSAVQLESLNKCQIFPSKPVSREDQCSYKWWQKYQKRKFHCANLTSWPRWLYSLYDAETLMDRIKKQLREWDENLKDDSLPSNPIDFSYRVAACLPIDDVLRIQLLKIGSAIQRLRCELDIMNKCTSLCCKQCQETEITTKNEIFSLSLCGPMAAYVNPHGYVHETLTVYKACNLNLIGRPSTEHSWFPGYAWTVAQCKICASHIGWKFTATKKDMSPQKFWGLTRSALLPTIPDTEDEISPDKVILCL
T1 sequence (Q16531 whole entry partner, the tested form may be a part): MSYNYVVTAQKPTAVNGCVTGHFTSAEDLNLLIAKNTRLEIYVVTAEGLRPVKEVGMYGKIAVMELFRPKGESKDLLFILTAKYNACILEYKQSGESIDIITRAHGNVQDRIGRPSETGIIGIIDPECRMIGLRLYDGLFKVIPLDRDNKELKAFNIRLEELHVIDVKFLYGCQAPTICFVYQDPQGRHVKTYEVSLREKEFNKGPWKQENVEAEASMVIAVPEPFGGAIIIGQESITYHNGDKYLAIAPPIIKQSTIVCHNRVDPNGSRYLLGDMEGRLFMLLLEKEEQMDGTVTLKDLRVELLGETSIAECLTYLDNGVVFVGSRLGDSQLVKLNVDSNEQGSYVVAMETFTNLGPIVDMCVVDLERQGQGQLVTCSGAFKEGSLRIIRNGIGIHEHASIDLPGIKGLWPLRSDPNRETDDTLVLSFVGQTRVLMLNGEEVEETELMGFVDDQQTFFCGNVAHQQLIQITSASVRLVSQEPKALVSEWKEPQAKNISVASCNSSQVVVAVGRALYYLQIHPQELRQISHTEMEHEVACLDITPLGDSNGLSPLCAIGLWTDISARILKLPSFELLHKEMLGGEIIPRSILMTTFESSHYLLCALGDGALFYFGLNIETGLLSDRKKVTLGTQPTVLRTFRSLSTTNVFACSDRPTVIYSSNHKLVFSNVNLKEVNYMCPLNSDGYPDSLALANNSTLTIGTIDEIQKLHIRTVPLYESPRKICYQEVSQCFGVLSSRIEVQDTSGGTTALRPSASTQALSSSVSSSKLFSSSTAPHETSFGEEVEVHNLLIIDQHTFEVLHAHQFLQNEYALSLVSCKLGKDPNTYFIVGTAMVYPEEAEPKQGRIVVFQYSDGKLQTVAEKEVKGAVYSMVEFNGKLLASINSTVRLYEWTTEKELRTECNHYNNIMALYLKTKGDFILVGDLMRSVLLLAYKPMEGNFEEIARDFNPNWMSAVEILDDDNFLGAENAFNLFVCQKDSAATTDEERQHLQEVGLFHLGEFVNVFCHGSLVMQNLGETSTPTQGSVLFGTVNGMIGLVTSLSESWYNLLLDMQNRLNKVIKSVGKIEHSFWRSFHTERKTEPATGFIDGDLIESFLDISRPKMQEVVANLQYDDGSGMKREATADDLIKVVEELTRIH

Dmax at 25 µM [1] [%] | remaining activity at 25 µM (HEK-293T, read-out: WIZ Amax) [%] | DC50 [nM] | Compound | Dmax [1] [%] | remaining activity (HEK-293T, read-out: WIZ Amax) [%]
53 | 47 | 1020 | O=C1CCN(c2cnn3ccc(CN4CCN5[C@@H](CCS5(=O)=O)C4)cc23)C(=O)N1 [Example 315, (S)-1-(5-((1,1-dioxidohexahydro-5H-isothiazolo[2,3-a]pyrazin-5-yl)methyl)pyrazolo[1,5-a]pyridin-3-yl)dihydropyrimidine-2,4(1H,3H)-dione] |  | 
83 | 17 | 61 | CO[C@H]1C[C@H](CN2CCN(Cc3ccn4ncc(N5CCC(=O)NC5=O)c4c3)C[C@@H]2C)C1 [Example 316, 1-(5-(((S)-4-(((1r,3S)-3-methoxycyclobutyl)methyl)-3-methylpiperazin-1-yl)methyl)pyrazolo[1,5-a]pyridin-3-yl)dihydropyrimidine-2,4(1H,3H)-dione] |  | 
80 | 20 | 31 | CO[C@H]1C[C@@H](CN2CCN(Cc3ccn4ncc(N5CCC(=O)NC5=O)c4c3)C[C@@H]2C)C1 [Example 317, 1-(5-(((S)-4-(((1s,3R)-3-methoxycyclobutyl)methyl)-3-methylpiperazin-1-yl)methyl)pyrazolo[1,5-a]pyridin-3-yl)dihydropyrimidine-2,4(1H,3H)-dione] |  | 
87 | 13 | 10 | C[C@H]1CN(Cc2ccn3ncc(N4CCC(=O)NC4=O)c3c2)CCN1C[C@H]1C[C@@H](F)[C@@H](F)C1 [Example 318, 1-(5-(((S)-4-(((1r,3R,4S)-3,4-difluorocyclopentyl)methyl)-3-methylpiperazin-1-yl)methyl)pyrazolo[1,5-a]pyridin-3-yl)dihydropyrimidine-2,4(1H,3H)-dione] |  | 
78 | 21 | 4 | C[C@H]1CN(Cc2ccn3ncc(N4CCC(=O)NC4=O)c3c2)CCN1C[C@@H]1CCC(F)(F)C1 [Example 319, 1-(5-(((S)-4-(((R)-3,3-difluorocyclopentyl)methyl)-3-methylpiperazin-1-yl)methyl)pyrazolo[1,5-a]pyridin-3-yl)dihydropyrimidine-2,4(1H,3H)-dione] |  | 
78 | 21 | 18 | C[C@H]1CN(Cc2ccn3ncc(N4CCC(=O)NC4=O)c3c2)CCN1C[C@H]1CCC(F)(F)C1 [Example 320, 1-(5-(((S)-4-(((S)-3,3-difluorocyclopentyl)methyl)-3-methylpiperazin-1-yl)methyl)pyrazolo[1,5-a]pyridin-3-yl)dihydropyrimidine-2,4(1H,3H)-dione] |  | 
78 | 22 | 67 | C[C@H]1CN(Cc2ccn3ncc(N4CCC(=O)NC4=O)c3c2)CCN1CC1CC1 [Example 321, (S)-1-(5-((4-(cyclopropylmethyl)-3-methylpiperazin-1-yl)methyl)pyrazolo[1,5-a]pyridin-3-yl)dihydropyrimidine-2,4(1H,3H)-dione] |  | 
86 | 14 | 31 | C[C@H]1CN(Cc2ccn3ncc(N4CCC(=O)NC4=O)c3c2)CCN1CC1(C)CCC1 [Example 322, (S)-1-(5-((3-methyl-4-((1-methylcyclobutyl)methyl)piperazin-1-yl)methyl)pyrazolo[1,5-a]pyridin-3-yl)dihydropyrimidine-2,4(1H,3H)-dione] |  | 
83 | 17 | 4 | C[C@H]1CN(Cc2ccn3ncc(N4CCC(=O)NC4=O)c3c2)CCN1C[C@H]1CC[C@H](C(F)(F)F)CC1 [Example 323, 1-(5-(((S)-3-methyl-4-(((1r,4S)-4-(trifluoromethyl)cyclohexyl)methyl)piperazin-1-yl)methyl)pyrazolo[1,5-a]pyridin-3-yl)dihydropyrimidine-2,4(1H,3H)-dione] |  | 
72 | 28 | 108 | C[C@H]1CN(Cc2ccn3ncc(N4CCC(=O)NC4=O)c3c2)CCN1CC1CCO1 (stereo partly drawn) [Example 324, 1-(5-(((3S)-3-methyl-4-(oxetan-2-ylmethyl)piperazin-1-yl)methyl)pyrazolo[1,5-a]pyridin-3-yl)dihydropyrimidine-2,4(1H,3H)-dione] |  | 
82 | 18 | 47 | C[C@H]1CN(Cc2ccn3ncc(N4CCC(=O)NC4=O)c3c2)CCN1CC1CC2(COC2)C1 [Example 325, (S)-1-(5-((4-((2-oxaspiro[3.3]heptan-6-yl)methyl)-3-methylpiperazin-1-yl)methyl)pyrazolo[1,5-a]pyridin-3-yl)dihydropyrimidine-2,4(1H,3H)-dione] |  | 
87 | 13 | 49 | C[C@H]1CN(Cc2ccn3ncc(N4CCC(=O)NC4=O)c3c2)CCN1CC1CC2(C1)CC(F)(F)C2 [Example 326, (S)-1-(5-((4-((6,6-difluorospiro[3.3]heptan-2-yl)methyl)-3-methylpiperazin-1-yl)methyl)pyrazolo[1,5-a]pyridin-3-yl)dihydropyrimidine-2,4(1H,3H)-dione] |  | 
54 | 46 | 653 | C[C@H]1CN(Cc2ccn3ncc(N4CCC(=O)NC4=O)c3c2)CCN1CC(F)F [Example 327, (S)-1-(5-((4-(2,2-difluoroethyl)-3-methylpiperazin-1-yl)methyl)pyrazolo[1,5-a]pyridin-3-yl)dihydropyrimidine-2,4(1H,3H)-dione] |  | 
52 | 48 | 338 | COCC(F)(F)CN1CCN(Cc2ccn3ncc(N4CCC(=O)NC4=O)c3c2)C[C@@H]1C [Example 328, (S)-1-(5-((4-(2,2-difluoro-3-methoxypropyl)-3-methylpiperazin-1-yl)methyl)pyrazolo[1,5-a]pyridin-3-yl)dihydropyrimidine-2,4(1H,3H)-dione] |  | 
82 | 18 | 41 | C[C@H]1CN(Cc2ccn3ncc(N4CCC(=O)NC4=O)c3c2)CCN1C1CCOCC1 [Example 330] |  | 
76 | 24 | 73 | C[C@H]1CN(Cc2ccn3ncc(N4CCC(=O)NC4=O)c3c2)CCN1C1COC1 [Example 331] |  | 
49 | 51 | 22000 | C[C@H]1CN(Cc2ccn3ncc(N4CCC(=O)NC4=O)c3c2)CCN1C1CC2(COC2)C1 [Example 332] |  | 
87 | 13 | 68 | C[C@H]1CN(Cc2ccn3ncc(N4CCC(=O)NC4=O)c3c2)CCN1C1CCCCC1 [Example 333] |  | 
85 | 15 | 32 | C[C@H]1CN(Cc2ccn3ncc(N4CCC(=O)NC4=O)c3c2)CCN1C1CCC(F)(F)CC1 [Example 334] |  | 
88 | 12 | 6 | C[C@H]1CN(Cc2ccn3ncc(N4CCC(=O)NC4=O)c3c2)CCN1C1CC2(CCC2)C1 [Example 335] |  | 
76 | 24 | 12000 | C[C@H]1CN(Cc2ccn3ncc(N4CCC(=O)NC4=O)c3c2)CCN1C1CC2(C1)CN(C)C2 [Example 336, (S)-1-(5-((3-methyl-4-(2-methyl-2-azaspiro[3.3]heptan-6-yl)piperazin-1-yl)methyl)pyrazolo[1,5-a]pyridin-3-yl)dihydropyrimidine-2,4(1H,3H)-dione] |  | 
83 | 17 | 399 | C[C@H]1CN(Cc2ccn3ncc(N4CCC(=O)NC4=O)c3c2)CCN1C1CC2(C1)CN(S(C)(=O)=O)C2 [Example 337, (S)-1-(5-((3-methyl-4-(2-(methylsulfonyl)-2-azaspiro[3.3]heptan-6-yl)piperazin-1-yl)methyl)pyrazolo[1,5-a]pyridin-3-yl)dihydropyrimidine-2,4(1H,3H)-dione] |  | 
83 | 17 | 33 | O=C1CCN(c2cnn3ccc(CN4CCN(C5CCCCC5)CC4)cc23)C(=O)N1 [Example 338, 1-(5-((4-cyclohexylpiperazin-1-yl)methyl)pyrazolo[1,5-a]pyridin-3-yl)dihydropyrimidine-2,4(1H,3H)-dione] |  | 
35 | 65 | 715 | CCS(=O)(=O)N1CCN(Cc2ccn3ncc(N4CCC(=O)NC4=O)c3c2)C[C@@H]1C [Example 339, (S)-1-(5-((4-(ethylsulfonyl)-3-methylpiperazin-1-yl)methyl)pyrazolo[1,5-a]pyridin-3-yl)dihydropyrimidine-2,4(1H,3H)-dione] |  | 
32 | 68 | 862 | C[C@H]1CN(Cc2ccn3ncc(N4CCC(=O)NC4=O)c3c2)CCN1C(=O)C1CC1 [Example 340, (S)-1-(5-((4-(cyclopropanecarbonyl)-3-methylpiperazin-1-yl)methyl)pyrazolo[1,5-a]pyridin-3-yl)dihydropyrimidine-2,4(1H,3H)-dione] |  | 

Compound | Dmax at 25 µM [1] [%] | remaining activity at 25 µM (HEK-293T, read-out: WIZ Amax) [%] | DC50 [nM] | Dmax [1] [%] | remaining activity (HEK-293T, read-out: WIZ Amax) [%]
C[C@H]1CN(Cc2ccn3ncc(N4CCC(=O)NC4=O)c3c2)CCN1C1CCC1 [Example 329, (S)-1-(5-((4-cyclobutyl-3-methylpiperazin-1-yl)methyl)pyrazolo[1,5-a]pyridin-3-yl)dihydropyrimidine-2,4(1H,3H)-dione] |  |  | 166 | 83 | 17
